Source: patent US10894788B2, “Inhibitors of cyclin-dependent kinases” (Kinnate Biopharma Inc., priority 2018, dated 2021)
Like-named read-outs stand apart in the source and are kept apart here.

Target: CDK12 wt/CycK (Homo sapiens (Human), UniProt Q9NYV4)
Assay: Radiometric protein kinase assay (33PanQinase Activity Assay), Assay Condition A (thiol containing conditions)
Type: biochemical
Procedure: Example 1—Assay Condition A (Thiol Containing Conditions)
Objective: The IC50 profile of test compounds was determined using three protein kinases.
Test compounds: The compounds were provided as pre-weighed powders in vials. The compounds were dissolved to 1×10^−02M by adding DMSO. 100 μl of each of the resulting stock solutions were transferred into column 2 of four 96 well “master plates”.
Prior to testing, the 1×10^−02M stock solutions in column 2 of the master plates were subjected to a serial, semi-logarithmic dilution using 100% DMSO as a solvent. […] Column 1 and 7 were filled with 100% DMSO as controls. Subsequently, 2×10 μl from each well of the serial diluted copy plates were aliquoted with a 96 channel pipettor into two identical sets of “compound dilution plates”.
In the process, 90 μl H2O were added to each well of a set of compound dilution plates. To minimize potential precipitation, the H2O was added to each plate only a few minutes before the transfer of the compound solutions into the assay plates. Each plate was shaken thoroughly, resulting in a “compound dilution plate/10% DMSO”.
For the assays, 5 μl solution from each well of the compound dilution plates/10% DMSO were transferred into the assay plates. The final volume of the assay was 50 μl. All compounds were tested at 10 final assay concentrations in the range from 1×10^−04M to 3×10^−09M, in singlicate. The final DMSO concentration in the reaction cocktails was 1% in all cases.
Recombinant protein kinases: All protein kinases were expressed in Sf9 insect cells or in E. coli as recombinant GST-fusion proteins or His-tagged proteins, either as full-length or enzymatically active fragments. All kinases were produced from human cDNAs and purified by either GSH-affinity chromatography or immobilized metal. Affinity tags were removed from a number of kinases during purification. The purity of the protein kinases was examined by SDS-PAGE/Coomassie staining, the identity was checked by mass spectroscopy.
Protein kinase assay: A radiometric protein kinase assay (^33PanQinase® Activity Assay) was used for measuring the kinase activity of the three protein kinases. All kinase assays were performed in 96-well FlashPlates™ from PerkinElmer (Boston, Mass., USA) in a 50 μl reaction volume. The reaction cocktail was pipetted in four steps in the following order: • 20 μl of assay buffer (standard buffer) • 5 μl of ATP solution (in H2O) • 5 μl of test compound (in 10% DMSO) • 20 μl enzyme/substrate mix
The following amounts of enzyme and substrate were used per well:
The reaction cocktails were incubated at 30° C. for 60 minutes. The reaction was stopped with 50 μl of 2% (v/v) H3PO4, plates were aspirated and washed two times with 200 μl 0.9% (w/v) NaCl. Incorporation of ^33Pi was determined with a microplate scintillation counter (Microbeta, Wallac). All assays were performed with a BeckmanCoulter/SAGIAN™ Core System.
Evaluation of raw data: The median value of the counts in column 1 (n=8) of each assay plate was defined as “low control”. This value reflects unspecific binding of radioactivity to the plate in the absence of a protein kinase but in the presence of the substrate. The median value of the counts in column 7 of each assay plate (n=8) was taken as the “high control”, i.e. full activity in the absence of any inhibitor. The difference between high and low control was taken as 100% activity.
As part of the data evaluation the low control value from a particular plate was subtracted from the high control value as well as from all 80 “compound values” of the corresponding plate. The residual activity (in %) for each well of a particular plate was calculated by using the following formula: Res. Activity (%)=100×[(cpm of compound−low control)/(high control−low control)]
The residual activities for each concentration and the compound IC50 values were calculated using Quattro Workflow V3.1.1 (Quattro Research GmbH, Munich, Germany).

[1] = thiol containing conditions (1.2 mM DTT), ATP 0.3 μM, read-out: CDK12 IC50 Condition A

Chain of CDK12 wt/CycK (Q9NYV4 whole entry): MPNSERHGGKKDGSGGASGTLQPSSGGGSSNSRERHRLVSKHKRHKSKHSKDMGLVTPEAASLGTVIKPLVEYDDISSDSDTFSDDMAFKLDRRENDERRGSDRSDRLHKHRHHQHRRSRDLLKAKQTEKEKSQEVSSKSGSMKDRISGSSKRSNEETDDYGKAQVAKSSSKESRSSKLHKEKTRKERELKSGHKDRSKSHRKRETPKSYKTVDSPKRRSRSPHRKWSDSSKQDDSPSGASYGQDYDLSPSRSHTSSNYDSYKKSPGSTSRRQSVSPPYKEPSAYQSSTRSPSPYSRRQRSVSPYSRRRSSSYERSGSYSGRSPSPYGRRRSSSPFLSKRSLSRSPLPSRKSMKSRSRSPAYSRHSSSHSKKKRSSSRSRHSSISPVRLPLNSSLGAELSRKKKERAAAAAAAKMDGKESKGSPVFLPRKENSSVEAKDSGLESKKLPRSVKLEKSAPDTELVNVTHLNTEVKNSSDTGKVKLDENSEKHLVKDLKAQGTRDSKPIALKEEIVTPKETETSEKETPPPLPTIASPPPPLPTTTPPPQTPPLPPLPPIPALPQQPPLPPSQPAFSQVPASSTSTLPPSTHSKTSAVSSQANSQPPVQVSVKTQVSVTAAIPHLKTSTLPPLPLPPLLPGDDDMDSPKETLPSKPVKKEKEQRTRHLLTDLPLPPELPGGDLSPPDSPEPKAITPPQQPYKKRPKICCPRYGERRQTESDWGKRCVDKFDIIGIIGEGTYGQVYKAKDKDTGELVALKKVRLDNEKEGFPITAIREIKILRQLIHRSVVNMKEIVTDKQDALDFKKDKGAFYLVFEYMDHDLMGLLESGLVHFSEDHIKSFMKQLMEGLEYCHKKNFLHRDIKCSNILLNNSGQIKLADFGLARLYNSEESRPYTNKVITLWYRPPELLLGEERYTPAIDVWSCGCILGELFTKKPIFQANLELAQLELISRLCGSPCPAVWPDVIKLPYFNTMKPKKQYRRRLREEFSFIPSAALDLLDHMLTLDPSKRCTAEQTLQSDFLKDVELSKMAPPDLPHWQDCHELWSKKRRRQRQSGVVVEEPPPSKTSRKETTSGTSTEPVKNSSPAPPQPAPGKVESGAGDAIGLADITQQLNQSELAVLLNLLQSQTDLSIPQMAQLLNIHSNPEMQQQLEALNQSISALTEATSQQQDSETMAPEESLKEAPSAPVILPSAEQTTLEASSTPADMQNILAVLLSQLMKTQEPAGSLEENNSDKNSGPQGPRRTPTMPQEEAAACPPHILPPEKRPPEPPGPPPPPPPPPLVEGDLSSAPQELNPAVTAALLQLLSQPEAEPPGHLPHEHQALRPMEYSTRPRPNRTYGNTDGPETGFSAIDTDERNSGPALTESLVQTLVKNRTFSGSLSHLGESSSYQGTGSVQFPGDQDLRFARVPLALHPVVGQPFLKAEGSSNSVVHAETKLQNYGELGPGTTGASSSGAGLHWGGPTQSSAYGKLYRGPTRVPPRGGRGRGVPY
Chain of CDK12 wt/CycK (O75909 whole entry partner): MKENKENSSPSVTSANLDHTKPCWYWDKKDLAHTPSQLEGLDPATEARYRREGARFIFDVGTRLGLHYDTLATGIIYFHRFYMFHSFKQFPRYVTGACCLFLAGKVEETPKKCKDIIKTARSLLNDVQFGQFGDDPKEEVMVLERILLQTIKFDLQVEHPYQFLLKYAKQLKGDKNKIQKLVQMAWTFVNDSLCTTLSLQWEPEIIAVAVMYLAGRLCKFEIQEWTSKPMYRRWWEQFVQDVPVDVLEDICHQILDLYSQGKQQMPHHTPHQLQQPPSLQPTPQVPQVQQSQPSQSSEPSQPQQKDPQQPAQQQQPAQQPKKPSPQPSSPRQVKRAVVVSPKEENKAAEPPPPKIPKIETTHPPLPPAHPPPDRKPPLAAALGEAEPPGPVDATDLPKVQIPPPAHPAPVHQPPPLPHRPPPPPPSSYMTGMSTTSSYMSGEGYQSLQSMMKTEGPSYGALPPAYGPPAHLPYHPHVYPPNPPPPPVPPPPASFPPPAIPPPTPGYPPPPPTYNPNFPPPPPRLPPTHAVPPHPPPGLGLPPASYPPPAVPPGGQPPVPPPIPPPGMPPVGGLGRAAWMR

SMILES | IC50 [1] [nM] | IC50 [nM]
COc1nc(N[C@@H]2CCN(C(=O)c3ccc(NC(=O)C4CO4)cc3)C2)ncc1Cl (stereo partly drawn) [Example 142, N-(4-((R)-3-((5-chloro-4-methoxypyrimidin-2-yl)amino)pyrrolidine-1-carbonyl)phenyl)oxirane-2-carboxamide] | 1000 to 10000 | 
C=CC(=O)Nc1ccc(C(=O)N2CC[C@@H](Nc3ncc(Cl)c(OCC)n3)C2)cc1OC1CCOC1 (stereo partly drawn) [Example 143, N-(4-((R)-3-((5-chloro-4-ethoxypyrimidin-2-yl)amino)pyrrolidine-1-carbonyl)-2-((tetrahydrofuran-3-yl)oxy)phenyl)acrylamide] | < 100 | 
C=CC(=O)Nc1ccc(C(=O)N2CC[C@@H](Nc3ncc(Cl)c(OCC)n3)C2)cc1OCCN(C)C [Example 144, (R)—N-(4-(3-((5-chloro-4-ethoxypyrimidin-2-yl)amino)pyrrolidine-1-carbonyl)-2-(2-(dimethylamino)ethoxy)phenyl)acrylamide] |  | < 100
C=CC(=O)Nc1ccc(C(=O)N2CC[C@@H](Nc3ccc(C#N)cn3)C2)cc1 [Example 147, (R)—N-(4-(3-((5-cyanopyridin-2-yl)amino)pyrrolidine-1-carbonyl)phenyl)acrylamide] |  | 100 to 1000
C=CC(=O)Nc1ccc(C(=O)N2CC[C@@H](Nc3ncc(C#N)cn3)C2)cc1 [Example 148, (R)—N-(4-(3-((5-cyanopyrimidin-2-yl)amino)pyrrolidine-1-carbonyl)phenyl)acrylamide] | 100 to 1000 | 
C/C=C/C(=O)Nc1ccc(C(=O)N2CC[C@@H](Nc3ncc(Cl)c(OC)n3)C2)nc1 [Example 150, (R,E)-N-(6-(3-((5-chloro-4-methoxypyrimidin-2-yl)amino)pyrrolidine-1-carbonyl)pyridin-3-yl)but-2-enamide] | 100 to 1000 | 
CC#CC(=O)Nc1ccc(C(=O)N2CC[C@@H](Nc3ncc(Cl)c(OC)n3)C2)cc1 [Example 151, (R)—N-(4-(3-((5-chloro-4-methoxypyrimidin-2-yl)amino)pyrrolidine-1-carbonyl)phenyl)but-2-ynamide] | < 100 | 
C=CC(=O)Nc1ccc(C(=O)N2CC[C@@H](Nc3ncc(Cl)c(OCC)n3)C2)nc1 [Example 152, (R)—N-(6-(3-((5-chloro-4-ethoxypyrimidin-2-yl)amino)pyrrolidine-1-carbonyl)pyridin-3-yl)acrylamide] | < 100 | 
C=CC(=O)Nc1ccc(C(=O)N2CC[C@@H](Nc3ncc(Cl)c(OCCOCC)n3)C2)cc1 [Example 153, (R)—N-(4-(3-((5-chloro-4-(2-ethoxyethoxy)pyrimidin-2-yl)amino)pyrrolidine-1-carbonyl)phenyl)acrylamide] | 100 to 1000 | 
[2H]C([2H])([2H])Oc1nc(N[C@@H]2CCN(C(=O)c3ccc(NC(=O)C#C)cc3)C2)ncc1Cl [Example 154, (R)—N-(4-(3-((5-chloro-4-(trideuteromethoxy)pyrimidin-2-yl)amino)pyrrolidine-1-carbonyl)phenyl)propiolamide] |  | < 100
C=CC(=O)Nc1ccc(C(=O)N2CC[C@H](Nc3ncc(Cl)cn3)C2)cc1 [Example 155, (S)—N-(4-(3-((5-chloropyrimidin-2-yl)amino)pyrrolidine-1-carbonyl)phenyl)acrylamide] | 10000 to 30000 | 
C=CC(=O)Nc1ccc(C(=O)N2CC[C@@H](Nc3ncc(Br)cn3)C2)cc1OCCN1CCOCC1 [Example 156, (R)—N-(4-(3-((5-bromopyrimidin-2-yl)amino)pyrrolidine-1-carbonyl)-2-(2-morpholinoethoxy)phenyl)acrylamide] |  | 100 to 1000
C=CC(=O)Nc1ccc(C(=O)N2CC[C@@H](Nc3ncc(Br)cn3)C2)cc1N1CCC(N(C)C)CC1 [Example 158, (R)—N-(4-(3-((5-bromopyrimidin-2-yl)amino)pyrrolidine-1-carbonyl)-2-(4-(dimethylamino)piperidin-1-yl)phenyl)acrylamide] | 100 to 1000 | 
C=CC(=O)Nc1ccc(C(=O)N2CC[C@@H](Nc3ncc(Br)cn3)C2)cc1N(C)CCN(C)C [Example 159, (R)—N-(4-(3-((5-bromopyrimidin-2-yl)amino)pyrrolidine-1-carbonyl)-2-((2-(dimethylamino)ethyl)(methyl)amino)phenyl)acrylamide] | 1000 to 10000 | 
C=CC(=O)Nc1ccc(C(=O)N2CC[C@@H](Nc3ncc(C#N)c(OC)n3)C2)cc1 [Example 160, (R)—N-(4-(3-((5-cyano-4-methoxypyrimidin-2-yl)amino)pyrrolidine-1-carbonyl)phenyl)acrylamide] | 10000 to 30000 | 
C=CC(=O)Nc1ccc(C(=O)N2CC[C@@H](Nc3ncc(Br)cn3)C2)cc1OCCN1CCC(F)(F)CC1 [Example 162, (R)—N-(4-(3-((5-bromopyrimidin-2-yl)amino)pyrrolidine-1-carbonyl)-2-(2-(4,4-difluoropiperidin-1-yl)ethoxy)phenyl)acrylamide] | 100 to 1000 | 
C=CC(=O)Nc1ccc(C(=O)N2CC[C@@H](Nc3ncc(Br)cn3)C2)cc1O[C@@H]1CCN(C)C1 [Example 163, N-(4-((R)-3-((5-bromopyrimidin-2-yl)amino)pyrrolidine-1-carbonyl)-2-(((R)-1-methylpyrrolidin-3-yl)oxy)phenyl)acrylamide] | < 100 | 
C=CC(=O)Nc1ccc(C(=O)N2CC[C@@H](Nc3ncc(Br)cn3)C2)cc1O[C@H]1CCN(C)C1 [Example 164, N-(4-((R)-3-((5-bromopyrimidin-2-yl)amino)pyrrolidine-1-carbonyl)-2-(((S)-1-methylpyrrolidin-3-yl)oxy)phenyl)acrylamide] | < 100 | 
C=CC(=O)Nc1ccc(C(=O)N2CC[C@@H](Nc3ncc(C#N)c(OC)n3)C2)cc1OCCN(C)C [Example 165, (R)—N-(4-(3-((5-cyano-4-methoxypyrimidin-2-yl)amino)pyrrolidine-1-carbonyl)-2-(2-(dimethylamino)ethoxy)phenyl)acrylamide] | < 100 | 
C=CC(=O)Nc1ccc(C(=O)N2CC[C@@H](Nc3ncc(C#N)cn3)C2)cc1OCCN(C)C [Example 166, (R)—N-(4-(3-((5-cyanopyrimidin-2-yl)amino)pyrrolidine-1-carbonyl)-2-(2-(dimethylamino)ethoxy)phenyl)acrylamide] |  | 100 to 1000
COc1nc(N[C@@H]2CCN(C(=O)c3ccc(NC(=O)/C=C/CN4CC[C@@H](F)C4)cc3)C2)ncc1Cl [Example 167, (E)-N-(4-((R)-3-((5-chloro-4-methoxypyrimidin-2-yl)amino)pyrrolidine-1-carbonyl)phenyl)-4-((R)-3-fluoropyrrolidin-1-yl)but-2-enamide] | < 100 | 
COc1nc(N[C@@H]2CCN(C(=O)c3ccc(NC(=O)/C=C/CN4CCOCC4)cc3)C2)ncc1Cl [Example 168, (R,E)-N-(4-(3-((5-chloro-4-methoxypyrimidin-2-yl)amino)pyrrolidine-1-carbonyl)phenyl)-4-morpholinobut-2-enamide] | 100 to 1000 | 
COc1nc(N[C@@H]2CCN(C(=O)c3ccc(NC(=O)/C=C/CN4CC[C@H](F)C4)cc3)C2)ncc1Cl [Example 169, (E)-N-(4-((R)-3-((5-chloro-4-methoxypyrimidin-2-yl)amino)pyrrolidine-1-carbonyl)phenyl)-4-((S)-3-fluoropyrrolidin-1-yl)but-2-enamide] | < 100 | 
COc1nc(N[C@@H]2CCN(C(=O)c3ccc(NC(=O)/C=C/CN4CC[C@@H](F)C4)cn3)C2)ncc1Cl [Example 170, (E)-N-(6-((R)-3-((5-chloro-4-methoxypyrimidin-2-yl)amino)pyrrolidine-1-carbonyl)pyridin-3-yl)-4-((R)-3-fluoropyrrolidin-1-yl)but-2-enamide] | 100 to 1000 | 
